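All cell lines were grown in 96-well plates and treated with compound for 48 hours. At the GI50, growth is halved. The concentration for full growth arrest is given as TGI.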
What was measured:
Assay in all cases: inhibition of tumour cell growth, NCI panel, 48 h; in the data active means GI50 below about 0.43 µM; inactive means the rest
[1] = test system: 786-0 renal
[2] = test system: A498 renal
[3] = test system: A549 NSCLC
[4] = test system: ACHN renal
[5] = test system: CAKI-1 renal
[6] = test system: CCRF-CEM leukemia
[7] = test system: COLO 205 colon
[8] = test system: DLD-1 colon
[9] = test system: DMS 273 small cell lung
[10] = test system: HCC-2998 colon
[11] = test system: HCT-116 colon
[12] = test system: HCT-15 colon
[13] = test system: HL-60(TB) leukemia
[14] = test system: HOP-18 NSCLC
[15] = test system: HOP-62 NSCLC
[16] = test system: HOP-92 NSCLC
[17] = test system: HT29 colon
[18] = test system: IGROV1 ovarian
[19] = test system: K-562 leukemia
[20] = test system: KM12 colon
[21] = test system: KM20L2 colon
[22] = test system: LOX IMVI melanoma
[23] = test system: LXFL 529 NSCLC
[24] = test system: M14 melanoma
[25] = test system: M19-MEL melanoma
[26] = test system: MALME-3M melanoma
[27] = test system: MOLT-4 leukemia
[28] = test system: NCI-H226 lung
[29] = test system: NCI-H23 lung
[30] = test system: NCI-H460 lung
[31] = test system: NCI-H522 lung
[32] = test system: OVCAR-3 ovarian
[33] = test system: OVCAR-4 ovarian
[34] = test system: OVCAR-8 ovarian
[35] = test system: RPMI-8226 leukemia
[36] = test system: RXF 393 renal
[37] = test system: SF-268 CNS
[38] = test system: SF-295 CNS
[39] = test system: SF-539 CNS
[40] = test system: SK-MEL-2 melanoma
[41] = test system: SK-MEL-28 melanoma
[42] = test system: SK-MEL-5 melanoma
[43] = test system: SK-OV-3 ovarian
[44] = test system: SN12C renal
[45] = test system: SNB-19 CNS
[46] = test system: SNB-75 CNS
[47] = test system: SNB-78 CNS
[48] = test system: SW-620 colon
[49] = test system: TK-10 renal
[50] = test system: U251 CNS
[51] = test system: UACC-257 melanoma
[52] = test system: UACC-62 melanoma
[53] = test system: UO-31 renal
[54] = test system: XF 498 CNS

N[C@@H]1CCCC[C@@H]1N.O=P([O-])([O-])CNCP(=O)([O-])[O-].[Pt+2]
inactive: GI50 [1] > 100 µM | GI50 [2] > 100 µM | GI50 [3] > 100 µM | GI50 [4] > 100 µM | GI50 [5] > 100 µM | GI50 [6] > 100 µM | GI50 [7] > 100 µM | GI50 [8] > 100 µM | GI50 [9] > 100 µM | GI50 [10] > 100 µM | GI50 [11] > 100 µM | GI50 [12] > 100 µM | GI50 [13] > 100 µM | GI50 [14] > 100 µM | GI50 [15] > 100 µM | GI50 [16] > 100 µM | GI50 [17] > 100 µM | GI50 [18] > 100 µM | GI50 [19] > 100 µM | GI50 [20] > 100 µM | GI50 [21] > 100 µM | GI50 [22] > 100 µM | GI50 [23] > 100 µM | GI50 [24] > 100 µM | GI50 [25] > 100 µM | GI50 [26] > 100 µM | GI50 [27] > 100 µM | GI50 [28] > 100 µM | GI50 [29] > 100 µM | GI50 [30] > 100 µM | GI50 [31] > 100 µM | GI50 [32] > 100 µM | GI50 [33] > 100 µM | GI50 [34] > 100 µM | GI50 [35] > 100 µM | GI50 [36] > 100 µM | GI50 [37] > 100 µM | GI50 [38] > 100 µM | GI50 [39] > 100 µM | GI50 [40] > 100 µM | GI50 [41] > 100 µM | GI50 [42] > 100 µM | GI50 [43] > 100 µM | GI50 [44] > 100 µM | GI50 [45] > 100 µM | GI50 [46] > 100 µM | GI50 [47] > 100 µM | GI50 [48] > 100 µM | GI50 [49] > 100 µM | GI50 [50] > 100 µM | GI50 [51] > 100 µM | GI50 [52] > 100 µM | GI50 [53] > 100 µM | GI50 [54] > 100 µM
> 100 µM: TGI [1] | TGI [2] | TGI [3] | TGI [4] | TGI [5] | TGI [6] | TGI [7] | TGI [8] | TGI [9] | TGI [10] | TGI [11] | TGI [12] | TGI [13] | TGI [14] | TGI [15] | TGI [16] | TGI [17] | TGI [18] | TGI [19] | TGI [20] | TGI [21] | TGI [22] | TGI [23] | TGI [24] | TGI [25] | TGI [26] | TGI [27] | TGI [28] | TGI [29] | TGI [30] | TGI [31] | TGI [32] | TGI [33] | TGI [34] | TGI [35] | TGI [36] | TGI [37] | TGI [38] | TGI [39] | TGI [40] | TGI [41] | TGI [42] | TGI [43] | TGI [44] | TGI [45] | TGI [46] | TGI [47] | TGI [48] | TGI [49] | TGI [50] | TGI [51] | TGI [52] | TGI [53] | TGI [54]
